The source of these data is PubChem BioAssay AID367 (MTDP, 2006).

One may read the IC50 as the concentration needed to halve the response being measured.

Active and inactive are the calls of the source. How the calls were made is not given here.

The target of this assay is Gag-Pol polyprotein (Human immunodeficiency virus type 2 subtype A (isolate ROD)) (UniProt P04584). In words: Reverse transcriptase ribonuclease H inhibitors, biochemical concentration-response (AID 367). Conditions: HIV-2 RNase H, FRET RNA/DNA substrate cleavage.
Sequence of Gag-Pol polyprotein (Human immunodeficiency virus type 2 subtype A (isolate ROD)) (P04584 whole entry, looked up): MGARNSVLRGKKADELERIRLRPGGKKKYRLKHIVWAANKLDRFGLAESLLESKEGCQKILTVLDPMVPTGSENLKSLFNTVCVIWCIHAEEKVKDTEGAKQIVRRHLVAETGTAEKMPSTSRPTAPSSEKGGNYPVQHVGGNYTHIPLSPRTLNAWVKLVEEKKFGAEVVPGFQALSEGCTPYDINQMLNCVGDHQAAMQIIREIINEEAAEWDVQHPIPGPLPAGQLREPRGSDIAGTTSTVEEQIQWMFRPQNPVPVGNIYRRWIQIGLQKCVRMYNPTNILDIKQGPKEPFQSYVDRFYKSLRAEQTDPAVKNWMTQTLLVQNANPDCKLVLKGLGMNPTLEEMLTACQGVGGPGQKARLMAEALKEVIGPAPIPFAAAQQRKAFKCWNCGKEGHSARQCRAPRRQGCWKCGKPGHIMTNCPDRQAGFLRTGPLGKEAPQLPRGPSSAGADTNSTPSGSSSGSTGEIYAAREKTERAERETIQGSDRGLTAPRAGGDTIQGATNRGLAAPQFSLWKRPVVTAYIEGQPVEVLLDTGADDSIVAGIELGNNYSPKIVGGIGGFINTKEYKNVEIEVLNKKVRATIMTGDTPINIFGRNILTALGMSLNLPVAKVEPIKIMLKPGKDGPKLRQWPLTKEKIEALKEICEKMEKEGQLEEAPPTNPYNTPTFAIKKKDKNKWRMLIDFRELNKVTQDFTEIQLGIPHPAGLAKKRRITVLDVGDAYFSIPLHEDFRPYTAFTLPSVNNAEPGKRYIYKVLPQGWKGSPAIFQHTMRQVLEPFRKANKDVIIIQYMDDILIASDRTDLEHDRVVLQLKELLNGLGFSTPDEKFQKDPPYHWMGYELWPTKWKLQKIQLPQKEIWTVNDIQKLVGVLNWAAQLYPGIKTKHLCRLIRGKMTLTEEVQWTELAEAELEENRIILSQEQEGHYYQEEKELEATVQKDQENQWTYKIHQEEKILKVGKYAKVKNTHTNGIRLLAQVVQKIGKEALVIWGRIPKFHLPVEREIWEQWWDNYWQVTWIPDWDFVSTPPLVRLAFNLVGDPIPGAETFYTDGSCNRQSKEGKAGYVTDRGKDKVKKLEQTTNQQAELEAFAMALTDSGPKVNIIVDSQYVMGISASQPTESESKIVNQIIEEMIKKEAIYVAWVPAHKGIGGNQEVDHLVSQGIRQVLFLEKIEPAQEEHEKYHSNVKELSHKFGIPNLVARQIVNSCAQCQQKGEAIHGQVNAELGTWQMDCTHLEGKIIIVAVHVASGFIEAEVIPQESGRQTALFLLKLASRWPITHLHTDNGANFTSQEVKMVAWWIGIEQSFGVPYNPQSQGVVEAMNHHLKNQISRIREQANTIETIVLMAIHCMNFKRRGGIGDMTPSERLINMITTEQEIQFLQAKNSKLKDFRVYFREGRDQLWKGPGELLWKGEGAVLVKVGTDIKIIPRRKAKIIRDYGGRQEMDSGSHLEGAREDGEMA
As for `COc1ccc(NC(=O)c2c(N)sc(-c3ccccc3)c2C)cc1`, the IC50 is 9 µM. Under `Cc1ccc(NC(=O)c2c(NC(=O)C(F)(F)F)sc(-c3ccccc3)c2C)c(C)c1` stands 2 µM; under `O=C1NN(c2ccc(I)cc2)C(=O)/C1=C\c1ccc(O)c(O)c1`, 4.1 µM; under `Nc1nc(Sc2ccc([N+](=O)[O-])c3nonc23)c2[nH]cnc2n1`, “inactive”. For the molecule `NC(=O)c1c(NC(=O)COc2ccccc2)sc2c1CCCCC2`, the IC50 is 8 µM. On to `Cc1cc(-c2ccco2)c(C#N)c(SCC(=O)c2ccc(O)c(O)c2)n1`, for which the IC50 was 0.8 µM.

With `COC(=O)c1cc2c3c(ccc2[nH]1)N(C(=O)c1cc2c4c(ccc2[nH]1)N(C(=O)c1cc2c5c(ccc2[nH]1)N(C(N)=O)CC5)CC4)CC3`, the IC50 was 8.1 µM.

Regarding `O=C1CC(=O)c2ccc3c4c(ccc1c24)C(=O)CC3=O`, the concentration for half-maximal inhibition (IC50) was 3.8 µM. Consider `Cc1ccc(S(=O)(=O)/N=C2\C=C(Sc3ncn[nH]3)C(=O)c3ccccc32)cc1`, for which the IC50 was 2 µM. With `C=C/C(C)=C/C[C@]1(C)[C@H](C)CC[C@@]23C(=C[C@H](OC(=O)c4ccc(O)c(OC)c4)C[C@@H]12)[C@@H](OC(C)=O)O[C@H]3OC(C)=O`, the IC50 entry was “inactive”. `O=C1c2ccccc2C(=O)c2c1cc(O)c(O)c2O`: the IC50 is 0.4 µM.

On to `O=C1NC(=O)/C(=C/c2ccc(-c3ccc(O)c(C(=O)O)c3)o2)S1`, for which the IC50 was 1 µM.

With `O=C1C=CC(=O)C(c2cccc(Cl)c2)=C1`, the IC50 is 1.1 µM. As to `c1ccc(C(c2cccc3c2ccc2ccccc23)C(c2ccccc2)c2cccc3c2ccc2ccccc23)cc1` (configuration not stated), the IC50 result was “inactive”. With `COc1cc(C=O)ccc1OCCCOc1cccc(Oc2ccccc2)c1`, the IC50 is > 100 µM (inactive). Consider `O=C1NC(=S)N(c2ccccc2F)C(=O)/C1=C/c1ccc(I)o1`, for which the IC50 was 4.9 µM.

As for `FC(F)(F)c1nc2ccc(SSc3ccc4nc(C(F)(F)F)[nH]c4c3)cc2[nH]1`, the IC50 was 0.6 µM.

Consider `Cc1sc(NC(=O)c2ccco2)c(C(N)=O)c1C`, for which the IC50 is 5 µM. Under `O=c1[nH]c(=S)n(-c2ccccc2F)c(O)c1C=C1C=CC=N1` stands 2.3 µM; under `CN(C)S(=O)(=O)c1ccc(Nc2ccc(O)c3c2C(=O)c2c([N+](=O)[O-])ccc(O)c2C3=O)cc1`, 8 µM. For `N#C/C(=C\Nc1ccc(S(=O)(=O)Nc2nccs2)cc1)c1nc(-c2ccc(Cl)cc2)cs1`, the IC50 is 4.1 µM.

Take `Nc1ccc(N=Nc2ccc(-c3ccc(O)cc3)cc2)c2ccc(S(=O)(=O)O)cc12`: the IC50 is 6.3 µM. Regarding `COc1ccc(-c2c(C#N)c(N)nc(SCC(=O)c3ccc(O)c(O)c3)c2C#N)cc1`, the IC50 was 0.7 µM.

`O=C1c2ccccc2C(=O)c2c(NC3CCCCC3)ccc(Nc3ccc(S(=O)(=O)O)cc3)c21`: the IC50 was 4.8 µM.

Take `CC(C)=CCC1=C(O)[C@@](O)(CC=C(C)C)C(=O)C(C(=O)CC(C)C)=C1O`: the IC50 was 2.8 µM. With `Nc1cc(S(N)(=O)=O)ccc1SSc1ccc(S(N)(=O)=O)cc1N` the figure was 2.5 µM. In the case of `Cc1nn(CC(=O)Nc2sc(C)c(C)c2C(N)=O)c(C)c1[N+](=O)[O-]`, the IC50 is 4.3 µM. With `Cc1ccc(NC(=O)c2c(NC(=O)c3ccccc3F)sc3c2CCCCC3)cc1` the figure was 5 µM. On to `COc1ccc(N2C(=O)/C(=C/c3ccc(I)o3)C(=O)NC2=S)cc1`, for which the IC50 was 1.3 µM.

Regarding `COc1c(OC)c(O)c2c(=O)cc(-c3ccc(O)c(O)c3)oc2c1OC`, the IC50 is 3 µM.

For the molecule `O=c1c(O)c(-c2ccc(O)c(O)c2)oc2cc(O)cc(O)c12`, the IC50 was 9 µM. As for `Cc1sc(NC(=O)C2CC3CCC2C3)c(C(N)=O)c1C` (configuration not stated), the IC50 entry was “inactive”. Turning to `CC(C)c1cccc(O)c(=O)c1`, the IC50 was > 100 µM (inactive). On to `C[C@]12Cc3cnc(-c4ccccc4)nc3C[C@@H]1CC[C@@H]1[C@@H]2CC[C@@]2(C)[C@H]1CC[C@]2(C)O`, for which the IC50 entry is “inactive”. With `O=C1/C(=C/c2ccc(O)c(O)c2)SC(=S)N1C1CCCCC1` the figure was 9.1 µM; with `O=C1NC(=S)S/C1=C/c1cccc(OCc2ccc(Cl)c(Cl)c2)c1`, 7.3 µM; with `COC(=O)c1c(N)sc(C(=O)Nc2ccc(OC)cc2)c1C`, 4.3 µM. With `CC(C)=Cc1cc(CCC/C(C)=C/Cc2c(O)cc(C)c(C(=O)O)c2O)co1` the figure was 5.7 µM; with `CCc1c(O)c2c(c(O)c1C(C)=O)C(=O)c1c(cc(O)c(C(=O)O)c1C(=O)O)C2=O`, 3.5 µM. Under `Cc1cc(O)c2c(c1O)C(=O)c1cccc(O)c1C2=O` stands > 100 µM (inactive); under `O=C1C(Cl)=CC(=NS(=O)(=O)c2ccccc2)C=C1Cl`, 1 µM. For `Oc1ccc2ccccc2c1C=NCc1c(O)ccc2ccccc12`, the IC50 entry is “inactive”. Regarding `Nc1c(S(=O)(=O)O)cc(Nc2cccc(S(N)(=O)=O)c2)c2c1C(=O)c1ccccc1C2=O`, the IC50 is 4 µM. Take `CCOc1ccc(NC(=O)c2c(NC(=O)c3ccco3)sc3c2CCCCC3)cc1`: the IC50 was 6 µM. Consider `Cc1c(Cl)ccc2c1NC(C(=O)O)C1CC=CC21` (configuration not stated), for which the IC50 entry was “inactive”. With `CC1C2C=CC1C(c1c3ccc(=O)c(O)c-3oc3c(O)c(O)ccc13)C2C(=O)O` (configuration not stated), the IC50 is 0.5 µM. In the case of `CN(C)CN1CSC(=S)N(CN(C)C)C1`, the concentration for half-maximal inhibition (IC50) is 2.8 µM. Take `COc1ccc(C2COc3cc(O)c(O)cc3C2)cc1` (configuration not stated): the IC50 was 0.5 µM. As for `O=S(=O)(O)c1cc(N=[N+]([O-])c2cc(S(=O)(=O)O)c3ccccc3c2)cc2ccccc12`, the IC50 result was “inactive”. As to `Cc1ccc(S(=O)(=O)/N=C2\C=CC(=O)C=C2Cl)cc1`, the IC50 is 2.1 µM.

`Oc1ccc(/C=N/Nc2nncc(-c3ccccc3)n2)c(O)c1O`: the IC50 was 1.1 µM. Take `Ic1ccc2c(c1)N(c1ccccc1)c1cc(N=c3ccc4nc5ccc(I)cc5n(-c5ccccc5)c-4c3)ccc1N2`: the IC50 is 2 µM. `O=C1Nc2ccc(I)cc2C1(O)N1CCOCC1` (configuration not stated): the IC50 was 6.3 µM. Consider `O=C(O)CCc1c2ccc(=O)c(O)c-2oc2c(O)c(O)ccc12`, for which the IC50 is 0.6 µM. For `O=C1C=C(NCCc2cc(Br)c(O)c(Br)c2)C(=O)c2ncccc21`, the IC50 was 1.7 µM. With `Cc1ccc(S(=O)(=O)N=C2C=C(Cl)C(=O)C(Br)=C2)cc1` the figure was 1.8 µM. For `Cc1sc(NC(=O)c2cccc([N+](=O)[O-])c2)c(C(N)=O)c1C`, the IC50 was 1.8 µM. For `O=C(Nc1sc2c(c1C(=O)Nc1cccc3ccccc13)CCCCC2)c1ccccc1F`, the IC50 entry was “inactive”.

With `O=C1C(Cl)=C(NC(=O)c2ccccc2)C(=O)C(Cl)=C1NC(=O)c1ccccc1`, the IC50 was 1.1 µM. Under `C[C@]12CC[C@H]3[C@@H](CCC4=CC(=O)CC[C@@]43C)[C@@H]1CC[C@@H]2C(=O)COS(=O)(=O)c1ccc(Br)cc1` stands 7.1 µM. With `Cc1ccc(C(=O)NC(=S)Nc2ccc(-c3nc4ccccc4s3)cc2)cc1[N+](=O)[O-]` the entry was “inactive”; with `CCN1C(=O)/C(=C/c2ccoc2)C(=O)NC1=S`, “inactive”; with `COc1ccc(C(=O)NC(=S)Nc2ccc3nn(-c4ccc(C)c(Cl)c4)nc3c2)cc1[N+](=O)[O-]`, 4.3 µM. `C[C@@H]1Oc2c3c(c4c(-c5ccccc5)cc(=O)oc4c2C(=O)[C@H]1C)OC(C)(C)C=C3`: the IC50 is 9.8 µM. Under `Cc1ccc(C(=O)Nc2sc(C)c(C)c2C(N)=O)cc1` stands 0.8 µM; under `CCCc1cc(=O)oc2c3c(c4c(c12)OC(C)(C)C=C4)O[C@H](C)[C@@H](C)[C@H]3OC`, “inactive”; under `Cc1cccc(NC(=O)c2c(NC(=O)c3ccc([N+](=O)[O-])cc3)sc3c2CCCC3)c1`, 2.7 µM.

As for `Cc1cc(=O)c2c(O)c3c(O)cc(O)c4c5c(O)cc(O)c6c(O)c7c(=O)cc(C)c8c1c2c(c34)c(c65)c78`, the IC50 entry was “inactive”. With `O=C1C=CC2=C3c4cc(O)c(O)cc4CC3(O)COC2=C1O` (configuration not stated) the figure was 1.7 µM; with `Cc1ccc(-c2cc(C(=O)Nc3sc(C(=O)OC(C)C)c(C)c3C(N)=O)c3ccccc3n2)s1`, 1.1 µM; with `O=C1C(Cl)=C/C(=N\S(=O)(=O)c2ccccc2)C(Cl)=C1Cl`, 0.9 µM. With `O=C1O/C(=C(/C(=O)O)c2ccc(O)cc2)C(O)=C1c1cc2c3c(c(O)cc(C4=C(O)/C(=C(\C(=O)O)c5ccc(O)cc5)OC4=O)c3c1)OC2=O`, the IC50 was 1.4 µM.

In the case of `Cc1cc(C)c2c(=O)[nH]c(SCC(=O)c3ccc(O)c(O)c3)nc2n1`, the IC50 is 3 µM. For the molecule `Cc1sc(NC(=O)Cc2ccccc2)c(C(N)=O)c1C`, the IC50 was 9 µM. In the case of `CC(C)c1ccc(O)c(=O)cc1`, the IC50 result is “inactive”.

Turning to `O=C1C=CC(=O)C(c2cc(Cl)ccc2Cl)=C1`, the IC50 is 0.1 µM. `C=Cc1c(C)c2cc3[nH]c(cc4nc(cc5nc(cc1[nH]2)C(C)=C5CCC(=O)O)C(CCC(=O)O)=C4C)c(C)c3C=C`: the IC50 is 1.7 µM. Take `O=C(O)c1cc(-c2ccc(/C=C3/Sc4ccccc4C3=O)o2)ccc1O`: the IC50 is 3.3 µM. For `CC1Oc2cc3c(-c4c(O)cc(O)c5c(O)c6c(cc45)OC(C)C(C)C6=O)c(O)cc(O)c3c(O)c2C(=O)C1C` (configuration not stated), the IC50 was 8.2 µM.

`CC(C)=CCC(O)C1=CC(=O)c2c(O)ccc(O)c2C1=O` (configuration not stated): the IC50 result was “inactive”.

As for `COC([CH2][Hg][n]1cnc2c1c(=O)n(C)c(=O)n2C)CN1C(=O)c2ccccc2S1(=O)=O` (configuration not stated), the IC50 was 0.9 µM. Turning to `CCOc1ccc(C(=O)Nc2ccc3c(c2)C(=O)c2ccccc2C3=O)cc1`, the IC50 is 4.3 µM. For `Cc1ccc(-n2c(/C=C/c3ccc(O)c(O)c3)nc3ccccc3c2=O)cc1`, the IC50 is 3.8 µM.

As for `Cc1sc(NC(=O)C2CCCO2)c(C(N)=O)c1C` (configuration not stated), the IC50 is 4.3 µM. Under `CCOC(=O)Oc1c(OC)cc(C(=O)O[C@@H]2C[C@@H]3CN4CCc5c([nH]c6cc(OC)ccc56)[C@H]4C[C@@H]3[C@H](C(=O)OC)[C@H]2OC)cc1OC` stands > 100 µM (inactive); under `CC(C)=CCC/C(C)=C/Cc1cc(/C=C/c2cc(O)c(C/C=C(\C)CCC=C(C)C)c(O)c2)cc(O)c1O`, 8.2 µM. On to `C[N+](C)=c1ccc2nc3c(cc(Nc4ccccc4)c4ccccc43)oc-2c1`, for which the IC50 entry was “inactive”.
